Laboratory results from patent US20090220462A1, “STEM CELLS” (Duke University, priority 2005, published 2009).
“And” between values parts separate entries of the source, which are not always exact repeats. Equal values may be shown once.

How the values were obtained:
CB CD34+CD38−lin− cells = assay: 7 day culture of CB CD34+CD38−lin− cells with TSF with and without ATRA (immunophenotype, CFC, morphology); assay type: cell-based, human
Method: (§1) Primary human BM and CB CD34^+CD38^−lin^− cells were placed in culture with 20 ng/mL thrombopoietin, 100 ng/mL SCF, and flt-3 ligand (TSF), a cytokine combination previously found to induce human stem and progenitor cell proliferation and differentiation in vitro (Chute et al, Blood 105:576-583 (2005), Chute et al, Stem ells 22:202-215 (2004)). In order to assess whether inhibition of ALDH activity could block the differentiation of human HSCs induced to proliferate by TSF, 1-2×10^4 BM or CB CD34^+CD38^−lin^− cells were cultured×7 days with IMDM, 10% FBS and 1% pcn/strp supplemented with TSF with and without 100 μM DEAB. At day 7, the progeny of all cultures were collected, washed×2 and cell counts were performed. A minimum of n=5 experiments was performed per culture condition to allow statistical comparisons to be performed. Immunophenotypic analysis was performed on progeny cells using anti-human CD34 and CD38 mAbs (Becton Dickinson) and isotype control IgG mAbs and compared with day 0 (input) staining. Fourteen day methylcellulose CFC assays (colony forming unit-granulocyte monocyte, CFU-GM, burst forming unit-erythroid, BFU-E, and colony forming unit-mix, CFU-Mix) were performed as we have previously described (Chute et al, Blood 100:4433-4439 (2002), Chute et al, Blood 105:576-583 (2005), Chute et al, Stem ells 22:202-215 (2004)) to compare the number of lineage committed CFCs within day 0 CD34^+CD38^−lin^− cells and their progeny. Morphologic analysis of day 0 CD34^+CD38^−lin^− cells and their progeny following 7 day culture was performed using Wrights-Geimsa staining and microscopic analysis under oil immersion (100×).
In order to assess the hematopoietic effects of retinoid agonists on purified human HSCs, BM and CB CD34^+CD38^−lin^− cells were placed in culture with TSF with and without 1 μM all-trans retinoic acid (ATRA), an agonist of RAR. Total cell expansion, immunophenotype, CFC content and morphologic analysis was performed on ATRA-treated progeny and compared with both day 0 CD34^+CD38^−lin^− populations and the progeny of TSF alone to assess the impact of retinoid agonism on the differentiation of human HSCs.

[1] = test system: BM and CB CD34+CD38−lin− cells; assay: 7 day culture of BM and CB CD34+CD38−lin− cells with TSF with and without DEAB (cell counts, immunophenotype, morphology); assay type: cell-based, human
Method: as §1

ALDH = ALDH activity by ALDEFLUOR staining of cultured CD34+CD38− cells; assay type: cell-based, human; conditions: 100 μM DEAB+TSF, 7 days, compared to day 0 or TSF alone, P=0.001
Method: (§2) Primary human BM and CB CD34^+CD38^−lin^− cells were placed in culture with 20 ng/mL thrombopoietin, 100 ng/mL SCF, and flt-3 ligand (TSF), a cytokine combination previously found to induce human stem and progenitor cell proliferation and differentiation in vitro (Chute et al, Blood 105:576-583 (2005), Chute et al, Stem ells 22:202-215 (2004)). In order to assess whether inhibition of ALDH activity could block the differentiation of human HSCs induced to proliferate by TSF, 1-2×10^4 BM or CB CD34^+CD38^−lin^− cells were cultured×7 days with IMDM, 10% FBS and 1% pcn/strp supplemented with TSF with and without 100 μM DEAB. At day 7, the progeny of all cultures were collected, washed×2 and cell counts were performed. A minimum of n=5 experiments was performed per culture condition to allow statistical comparisons to be performed. Immunophenotypic analysis was performed on progeny cells using anti-human CD34 and CD38 mAbs (Becton Dickinson) and isotype control IgG mAbs and compared with day 0 (input) staining. […]

[2] = test system: BM CD34+CD38−lin− cells (SRCs); assay: Long-term repopulating assay in NOD/SCID mice, BM cells (SRC frequency); assay type: in vivo, human
Method: (§3) NOD/SCID mice (Schulz et al, J. Immunol. 154:180-191 (1995)) were transplanted with either day 0 FACS-sorted BM or CB CD34^+CD38^−lin− HSC-enriched cells or the progeny of CD34^+CD38^−lin− cells cultured with TSF alone or TSF supplemented with 100 μM DEAB. Cells were transplanted via tail vein injection after irradiating NOD/SCID mice with 300 cGy using an X-ray irradiator as previously described (Chute et al, Blood 100:4433-4439 (2002), Chute et al, Blood 105:576-583 (2005)). Day 0 CD34^+CD38^−lin− HSCs and their progeny were co-transplanted with 2×10^4 […] to facilitate engraftment as previously described (Bonnet et al, Bone Marrow Transpl. 23:203-209 (1999), Bhatia et al, Proc. Natl. Acad. Sci. USA 94:5320-5325 (1997)).
(§4) All mice in each group were sacrificed at week 8 and marrow samples were obtained by flushing their femurs with IMDM at 4° C. Red cells were lysed using red cell lysis buffer (Sigma-Aldrich) and flow cytometric analysis of human hematopoietic engraftment was performed as previously described using commercially available mAbs against human leukocyte differentiation antigens to identify engrafted human leukocytes and discriminate their hematopoietic lineages (Chute et al, Blood 100:4433-4439 (2002), Chute et al, Blood 105:576-583 (2005), Trischmann et al, J. Hematother. 2:305-313 (1993)).
(§5) Comparisons of data from in vitro experiments were made using the Student's t test. For purposes of the limiting dilution analysis, a transplanted mouse was scored as positively engrafted if ≧0.1% of the marrow cells expressed human-CD45 via high resolution FACS analysis. This criteria is consistent with previously published criteria for human cell repopulation in NOD/SCID mice (Chute et al, Blood 100:4433-4439 (2002), Dorrell et al, Blood 95:102-110 (2000)). SRC frequency in each cell source was calculated using the maximum likelihood estimator as described previously by Taswell (J. Immunol. 126:1614-1619 (1981), Wang et al, Blood 89:3919-3924 (1997), Ueda et al, J. Clin. Invest. 105:1013-1021 (2000)). Confidence intervals for the frequencies were calculated using the profile likelihood method, and the likelihood ratio test was used to confirm the fit of the model.

BM CD34+CD38−lin− cells = assay: Fourteen day methylcellulose CFC assay of culture progeny; assay type: cell-based, human; conditions: DEAB+TSF 7 days (TSF alone 5-fold increase vs input)
Method: as §2

HOXB4 = assay: Quantitative real-time PCR of HOXB4 in cultured CB CD34+CD38−lin− cells; assay type: cell-based, human; conditions: DEAB added to TSF (TSF alone 5-fold decrease vs day 0)
Method: (§6) Extraction of total RNA from Day 0 and Day 7 CB CD34^+ populations was done using a RNeasy Mini spin column (Qiagen, Valencia, Calif.) according to the manufacturer's recommended protocol. […] Briefly, total RNA was isolated from CD34^+CD38^−lin^− cells according to the manufacturer's instructions for the RNaqueous®-Micro (Ambion) and reversed-transcribed to cDNA using iScript™ cDNA synthesis Kit (Biorad, Hercules, Calif.). cDNA concentrations were measured with a fluorometer (Turner Designs, Sunnyvale, Calif.) using RiboGreen reagent (Invitrogen). PCR amplification reactions were performed in 13 μl and contained equal amounts of cDNAs, 6.5 μl of iQ SYBR green supermix (Bio-Rad), 0.2 μM of each forward and reverse gene-specific primers for genes of interest and the normalization gene 36B4. PCR was performed on an iCycler (Bio-Rad) according to the following cycling conditions: an initial cycle of 15 min at 95° C.; 45 cycles of 45 sec at 95° C., 15 sec at 55° C., and 15 sec at 72° C.; followed by a melt-curve analysis cycle with steps of 10 sec each at 0.5° C. increments from 60 to 95° C. Amplification rates were visualized and analyzed on ICYCLER IQ optical system software version 3.0 (Bio-Rad). Gene-specific primers were purchased from Integrated DNA Technologies (Coralville, Iowa).

[3] = test system: CB CD34+CD38−lin− cells (SRCs); assay: Long-term repopulating assay in NOD/SCID mice, CB cells (limiting dilution, SRC frequency); assay type: in vivo, human
Method: as §3, §4, §5

Notch = assay: Quantitative real-time PCR of Notch in cultured CB CD34+CD38−lin− cells; assay type: cell-based, human; conditions: DEAB+TSF
Method: as §6

[4] = progeny of DEAB+TSF cultures, cell dose 0.5-1×10^3, 8 weeks

CC1=C(/C=C/C(C)=C/C=C/C(C)=C/C(=O)O)C(C)(C)CCC1 [ATRA, all-trans retinoic acid]
HSC differentiation in presence of DEAB (CB CD34+CD38−lin− cells; 1 μM ATRA+100 μM DEAB+TSF): HSC differentiation occurred | number of CFCs compared to TSF alone (CB CD34+CD38−lin− cells; ATRA+TSF treated cultures): decreased | differentiation and maturation of human HSCs (CB CD34+CD38−lin− cells; ATRA, by day 7): induced pronounced differentiation and myeloid maturation | CD34+CD38− cells remaining in culture (CB CD34+CD38−lin− cells; TSF+1 μM ATRA, day 7): no CD34^+CD38^− cells remained | percentage of CD34+ cells relative to TSF alone (CB CD34+CD38−lin− cells; TSF+1 μM ATRA, day 7): declined

CCN(CC)c1ccc(C=O)cc1 [DEAB]
absolute numbers of CD34+CD38− cells compared to day 0 ([1]; 100 μM DEAB+TSF, 7 days (TSF alone 5-fold decrease)): maintenance | mean total cell expansion ([1]; 100 μM DEAB+TSF, 7 days (TSF alone 15-fold)): 4 fold | percentages of primitive CD34+CD38− cells in progeny ([1]; BM and CB cells, DEAB+TSF 7 days, compared to TSF alone, P=0.01 and P=0.02): significantly higher | morphologic examination of progeny ([1]; DEAB+TSF cultures, Wrights-Giemsa staining, data not shown): predominance of cells with high nuclear:cytoplasmic ratios and prominent nucleoli | ALDH activity in CD34+CD38− cells (ALDH): significantly reduced | huCD45+ cell repopulation ([2]; cell dose 1-2.5×10^3, TSF+DEAB progeny): no huCD45^+ cell repopulation was detected | transplanted mice with human repopulation (FIG. 4 legend) ([2]; progeny of 5×10^3 cells after DEAB+TSF culture): 50-80% | mean huCD45+ cell engraftment ([2]; progeny of DEAB+TSF cultures, cell dose 5×10^3): 0.1% | mice showing huCD45+ cell engraftment ([2]; progeny of DEAB+TSF cultures, cell dose 5×10^3, 3 of 6 mice (day 0 and TSF 0 of 5)): 50% | CFC content of progeny (BM CD34+CD38−lin− cells): little CFC content | HOXB4 expression relative to input levels (HOXB4): 80% and 70% | fold increase in SRC frequency ([3]; DEAB+TSF versus day 0 cells or TSF alone): 2 fold | multilineage differentiation in transplanted mice ([3]; mice transplanted with DEAB+TSF cultured cells, flow cytometry of BM): extensive CD34^+ progenitor cell, CD19^+ B lymphoid and CD 33/13^+ myeloid differentiation | fold higher levels of huCD45+ cell engraftment [3, 4]: 4 fold | mean huCD45+ cell engraftment [3, 4]: 0.9% | mice showing huCD45+ cell repopulation at 8 weeks ([3]; progeny of DEAB+TSF cultures, cell dose 0.5-1×10^3, 9 of 17 mice (day 0 31%, TSF 18%)): 53% | higher levels of huCD45+ cell engraftment versus day 0 or TSF ([3]; progeny of DEAB+TSF cultures, cell dose 2.5×10^3): 1 log | mean huCD45+ cell engraftment ([3]; progeny of DEAB+TSF cultures, cell dose 2.5×10^3, 8 weeks (day 0 0.9%, TSF 0.7%)): 8.0% | Notch transcription compared to TSF alone (Notch): did not alter
